Values after ≈ are worked out from the molar mass of the structure shown.
Tests used:
Cryptococcus neoformans [1] = experiment: Antifungal activity against Cryptococcus neoformans H99 incubated for 72 hrs by microbroth dilution method; assay type: functional
Candida albicans [2] = experiment: Antifungal activity against Candida albicans SC5314 incubated for 24 hrs by microbroth dilution method; assay type: functional
Aspergillus fumigatus [3] = experiment: Antifungal activity against Aspergillus fumigatus 7544 incubated for 48 hrs by microbroth dilution method; assay type: functional
Candida albicans [4] = experiment: Antifungal activity against Candida albicans Y0109; assay type: functional
Candida parapsilosis [5] = experiment: Antifungal activity against Candida parapsilosis 22019; assay type: functional; details: Lodderomyces parapsilosis
Cryptococcus neoformans [6] = experiment: Antifungal activity against Cryptococcus neoformans 32605; assay type: functional
Nakaseomyces glabratus [7] = experiment: Antifungal activity against Candida glabrata 537; assay type: functional
Trichophyton rubrum = experiment: Antifungal activity against Trichophyton rubrum cmccftla; assay type: functional
Nannizzia gypsea = experiment: Antifungal activity against Microsporum gypseum; assay type: functional
Candida albicans [8] = experiment: Antifungal activity against Candida albicans 12#; assay type: functional
Candida albicans [9] = experiment: Antifungal activity against Candida albicans 25#; assay type: functional
Candida albicans [10] = experiment: Antifungal activity against Candida albicans 162; assay type: functional
Candida albicans [11] = experiment: Antifungal activity against Candida albicans 14#; assay type: functional
Candida albicans [12] = experiment: Antifungal activity against Candida albicans 305; assay type: functional
Candida albicans [13] = experiment: Antifungal activity against Candida albicans 20#; assay type: functional
Candida albicans [14] = experiment: Antifungal activity against Candida albicans 28#; assay type: functional
Candida parapsilosis [15] = experiment: Antifungal activity against Candida parapsilosis 660; assay type: functional; details: Lodderomyces parapsilosis
Candida parapsilosis [16] = experiment: Antifungal activity against Candida parapsilosis 90018; assay type: functional; details: Lodderomyces parapsilosis
Candida parapsilosis [17] = experiment: Antifungal activity against Candida parapsilosis 700; assay type: functional; details: Lodderomyces parapsilosis
Candida tropicalis [18] = experiment: Antifungal activity against Candida tropicalis 112936; assay type: functional
Candida tropicalis [19] = experiment: Antifungal activity against Candida tropicalis ATCC750; assay type: functional
Pichia kudriavzevii [20] = experiment: Antifungal activity against Candida krusei 463; assay type: functional
Pichia kudriavzevii [21] = experiment: Antifungal activity against Candida krusei 629; assay type: functional
Pichia kudriavzevii [22] = experiment: Antifungal activity against Candida krusei 397; assay type: functional
Pichia kudriavzevii [23] = experiment: Antifungal activity against Candida krusei 467; assay type: functional
Nakaseomyces glabratus [24] = experiment: Antifungal activity against Candida glabrata ATCC2001; assay type: functional
[Candida] auris [25] = Antifungal activity against Candida auris 791; assay type: functional; details: Candidozyma auris
[Candida] auris [26] = Antifungal activity against Candida auris BS12372; assay type: functional; details: Candidozyma auris
[Candida] auris [27] = Antifungal activity against Candida auris D12; assay type: functional; details: Candidozyma auris
[28] = molecular target: T1, Lanosterol 14-alpha demethylase (Candida albicans (strain SC5314 / ATCC MYA-2876) (Yeast), UniProt P10613); experiment: Inhibition of CYP51 in Candida albicans SC5314 assessed as lanosterol level at 0.0625 ug/ml measured after 12 hrs by GC-MS analysis (reference value: 2.18%); design: scale not given: the % may be the effect or the level left; details: dose 0.0625 µg/ml
[29] = molecular target: T1, Lanosterol 14-alpha demethylase; experiment: Inhibition of CYP51 in Candida albicans SC5314 assessed as ergosterol level at 0.0625 ug/ml measured after 12 hrs by GC-MS analysis (reference value: 72.58%); design: scale not given: the % may be the effect or the level left; details: dose 0.0625 µg/ml
[30] = molecular target: T1, Lanosterol 14-alpha demethylase; experiment: Inhibition of CYP51 in Candida albicans SC5314 assessed as eburicol level at 0.0625 ug/ml measured after 12 hrs by GC-MS analysis (reference value: 0.00%); design: scale not given: the % may be the effect or the level left; details: dose 0.0625 µg/ml
[31] = molecular target: T1, Lanosterol 14-alpha demethylase; experiment: Inhibition of CYP51 in Candida albicans SC5314 assessed as sterol level at 0.0625 ug/ml measured after 12 hrs by GC-MS analysis (reference value: 25.23%); design: scale not given: the % may be the effect or the level left; details: dose 0.0625 µg/ml
[32] = Cmax in Sprague-Dawley rat at 5 mg/kg, po by LC-MS analysis; assay type: ADME, organism-based; design: dose 5 mg/kg, route po; details: in vivo
[33] = Tmax in Sprague-Dawley rat at 5 mg/kg, po by LC-MS analysis; assay type: ADME, organism-based; details: in vivo
[34] = Half life in Sprague-Dawley rat at 2 mg/kg, iv by LC-MS analysis; assay type: ADME, organism-based; details: in vivo
[35] = Half life in Sprague-Dawley rat at 5 mg/kg, po by LC-MS analysis; assay type: ADME, organism-based; details: in vivo
[36] = AUC(0 to infinity) in Sprague-Dawley rat at 2 mg/kg, iv by LC-MS analysis; assay type: ADME, organism-based; design: time infinity, dose 2 mg/kg, route iv; details: in vivo
[37] = AUC(0 to infinity) in Sprague-Dawley rat at 5 mg/kg, po by LC-MS analysis; assay type: ADME, organism-based; design: time infinity, dose 5 mg/kg, route po; details: in vivo
[38] = Oral bioavailability in Sprague-Dawley rat at 5 mg/kg by LC-MS analysis; assay type: ADME, organism-based; details: in vivo
Aspergillus fumigatus [39] = experiment: Antifungal activity against Aspergillus fumigatus 7544 infected in ICR mouse assessed as survival rate at 20 mg/kg, po qd infected with fungus for 2 hrs prior to compound addition for 7 days and measured for 20 days; assay type: functional; details: time 20 day
Aspergillus fumigatus [40] = experiment: Antifungal activity against Aspergillus fumigatus 7544 infected in ICR mouse assessed as survival rate at 60 mg/kg, po qd infected with fungus for 2 hrs prior to compound addition for 7 days and measured for 20 days; assay type: functional; details: time 20 day
[41] = Cytotoxicity against HUVEC assessed as cell viability at 64 ug/ml incubated for 24 hrs by CCK-8 assay; assay type: toxicity, cell-based; details: human, HUVEC cells, at 64 µg/mL, read-out: Activity
[42] = Induction of hemolysis in rabbit RBC at 64 ug/ml incubated for 1 hr; assay type: toxicity, cell-based, Oryctolagus cuniculus, Erythrocyte; details: red blood cells, at 64 µg/mL, read-out: Activity
in vitro = details: human, Caco-2 cells; at 64 µg/mL

T1 sequence (P10613 whole entry): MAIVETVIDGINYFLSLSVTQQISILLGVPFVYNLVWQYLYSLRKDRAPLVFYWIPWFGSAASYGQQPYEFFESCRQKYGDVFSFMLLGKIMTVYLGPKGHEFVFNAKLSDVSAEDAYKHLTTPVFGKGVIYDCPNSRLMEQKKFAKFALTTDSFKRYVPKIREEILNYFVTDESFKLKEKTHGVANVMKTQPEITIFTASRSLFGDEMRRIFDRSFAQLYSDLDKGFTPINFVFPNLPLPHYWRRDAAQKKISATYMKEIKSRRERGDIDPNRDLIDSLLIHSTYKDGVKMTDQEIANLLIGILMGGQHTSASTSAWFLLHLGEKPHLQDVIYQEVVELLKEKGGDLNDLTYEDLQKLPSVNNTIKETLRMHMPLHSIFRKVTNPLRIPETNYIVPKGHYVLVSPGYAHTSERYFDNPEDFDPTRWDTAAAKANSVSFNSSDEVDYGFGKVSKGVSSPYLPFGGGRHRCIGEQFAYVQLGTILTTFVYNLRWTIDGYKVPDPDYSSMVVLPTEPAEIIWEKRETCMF

With `C[C@@H](c1ncncc1F)[C@](O)(Cn1cncn1)c1ccc(F)cc1F` [VORICONAZOLE] as the compound, how does the MIC (Cryptococcus neoformans [1]) read?
The MIC was 0.0313 µg/mL (≈ 0.0896 µM).

What about the MIC (Candida albicans [2]) of the same compound?
Its MIC is 0.0313 µg/mL (≈ 0.0896 µM).

What about the MIC (Aspergillus fumigatus [3]) of the same compound?
The MIC was 0.25 µg/mL (≈ 0.716 µM).

What about the MIC (Candida albicans [4]) of the same compound?
The MIC was 0.0156 µg/mL (≈ 0.0447 µM).

What about the MIC (Candida parapsilosis [5]) of the same compound?
The MIC was 0.0313 µg/mL (≈ 0.0896 µM).

And the MIC (Cryptococcus neoformans [6])?
Its MIC is 0.0156 µg/mL (≈ 0.0447 µM).

What about the MIC (Nakaseomyces glabratus [7]) of the same compound?
Its MIC is 0.125 µg/mL (≈ 0.358 µM).

What about the MIC (Trichophyton rubrum) of the same compound?
The MIC was 0.0625 µg/mL (≈ 0.179 µM).

And the MIC (Nannizzia gypsea)?
The MIC was 0.25 µg/mL (≈ 0.716 µM).

What about the MIC (Candida albicans [8]) of the same compound?
Its MIC is > 64 µg/mL.

And the MIC (Candida albicans [9])?
Its MIC is > 64 µg/mL.

And the MIC (Candida albicans [10])?
Its MIC is > 64 µg/mL.

And the MIC (Candida albicans [11])?
The MIC was > 64 µg/mL.

And the MIC (Candida albicans [12])?
Its MIC is > 16 µg/mL.

And the MIC (Candida albicans [13])?
Its MIC is ≤ 0.0313 µg/mL.

What about the MIC (Candida albicans [14]) of the same compound?
The MIC was ≤ 0.0313 µg/mL.

And the MIC (Candida parapsilosis [15])?
Its MIC is ≤ 0.0313 µg/mL.

What about the MIC (Candida parapsilosis [16]) of the same compound?
The MIC was ≤ 0.0313 µg/mL.

And the MIC (Candida parapsilosis [17])?
The MIC was 0.0313 µg/mL (≈ 0.0896 µM).

And the MIC (Candida tropicalis [18])?
The MIC was > 16 µg/mL.

And the MIC (Candida tropicalis [19])?
Its MIC is 8 µg/mL (≈ 22.9 µM).

What about the MIC (Pichia kudriavzevii [20]) of the same compound?
The MIC was 0.0625 µg/mL (≈ 0.179 µM).

And the MIC (Pichia kudriavzevii [21])?
Its MIC is 0.0625 µg/mL (≈ 0.179 µM).

What about the MIC (Pichia kudriavzevii [22]) of the same compound?
The MIC was 0.125 µg/mL (≈ 0.358 µM).

And the MIC (Pichia kudriavzevii [23])?
Its MIC is 0.125 µg/mL (≈ 0.358 µM).

What about the MIC (Nakaseomyces glabratus [24]) of the same compound?
Its MIC is 0.125 µg/mL (≈ 0.358 µM).

What about the MIC ([Candida] auris [25]) of the same compound?
Its MIC is 2 µg/mL (≈ 5.73 µM).

And the MIC ([Candida] auris [26])?
The MIC was 2 µg/mL (≈ 5.73 µM).

And the MIC ([Candida] auris [27])?
The MIC was 1 µg/mL (≈ 2.86 µM).

And the Activity [28]?
Its Activity is 5.38%.

What about the Activity [29] of the same compound?
The Activity was 1.63%.

What about the Activity [30] of the same compound?
Its Activity is 87.15%.

And the Activity [31]?
The Activity was 5.84%.

And the Cmax [32]?
The Cmax was 877 ng/mL.

What about the Tmax [33] of the same compound?
The Tmax was 53.4 min.

And the half-life [34]?
The half-life was 234 min.

And the half-life [35]?
The half-life was 40.2 min.

And the AUC(0-inf) [36]?
Its AUC(0-inf) is 7200 ng·h/mL.

And the AUC(0-inf) [37]?
Its AUC(0-inf) is 2530 ng·h/mL.

What about the bioavailability [38] of the same compound?
Its bioavailability is 26%.

What about the Activity (Aspergillus fumigatus [39]) of the same compound?
The Activity was 60%.

What about the Activity (Aspergillus fumigatus [40]) of the same compound?
Its Activity is 100%.

What about the viability at 24 h, 64 ug/ml [41] of the same compound?
Its viability at 24 h, 64 ug/ml is 93.4%.

And the hemolysis at 1 h, 64 ug/ml [42]?
Its hemolysis at 1 h, 64 ug/ml is 1.07%.

What about the viability at 24 h, 64 ug/ml (in vitro) of the same compound?
Its viability at 24 h, 64 ug/ml is 103%.

— ChEMBL document CHEMBL5150076, “Discovery of Novel Orally Bioavailable Triazoles with Potent and Broad-Spectrum Antifungal Activity In Vitro and In Vivo” (J Med Chem, 2022)
